{
  "source": "patent US20230054976A1",
  "about": "“METHODS FOR INHIBITION OF ALPHA-SYNUCLEIN mRNA USING SMALL MOLECULES” (The Scripps Research Institute, priority 2019, published 2023)",
  "key": {"[1]": {"system": "construct in which the SNCA 5′ UTR was absent", "assay": "Luciferase reporter assay, construct lacking SNCA 5′ UTR, SH-SY5Y cells", "format": "cell-based, human", "conditions": "cellular", "excerpt": "pIRES-Luc-EGFP-puro: The firefly luciferase open reading frame (ORF) was amplified with primers 1 and 2 using pmirGLO-dual-luciferase (Promega, E1330) as a template. The PCR product was then fused with linearized pIRES-EGFP-puro (Addgene plasmid #45567) digested with XhoI and SacI, placing the luciferase ORF upstream of the IRES sequence. pCDH-Luc-EGFP-puro: The firefly luciferase open reading frame (ORF) was amplified with primers 15 and 16 using pmirGLO-dual-luciferase (Promega, E1330) as a template. The PCR product was then fused with linearized pCDH-CB-IRES-copGFP-T2A-Puro digested with BamHI and NotI, placing the luciferase ORF upstream of IRES sequence. Luciferase assay. The effect of Synucleozid treatment on translation from various IRE containing transcripts was determined using luciferase reporter assay. […] Luciferase reporter activity in each lysate was monitored using the dual luciferase reporter assay system kit (Promega. Madison, Wis., USA) according to the manufacturer's instructions. Luminescence from firefly luciferase reaction was measured using a microplate luminometer (Wallac 1420, Perkin Elmer) at 485 nm excitation and 535 nm emission wavelengths. Firefly luciferase reaction was then quenched by adding Stop & Glo reagent, and the internal fluorescence from GFP measured at the same setting was used to normalize luciferase expression. […]"}, "SH-SY5Y cells": {"system": "SH-SY5Y cells", "assay": "LDH release cytotoxicity assay", "format": "cell-based, human", "conditions": "0.25, 0.5 and 1 μM, 48 h", "procedure": "To assess if Synucleozid has a cytotoxic effect, SH-SY5Y cells were treated with 0.25, 0.5 and 1 μM for 48 h, and cell viability and cytotoxicity were measured using CellTiter 96 Aqueous One Solution Cell Proliferation Assay (MTS) and LDH release assay, respectively, according to the manufacturers' instructions."}, "SH-SY5Y cells proteome": {"system": "SH-SY5Y cells proteome", "assay": "Proteomics profiling by mass spectrometry", "format": "cell-based, human", "conditions": "48 h", "procedure": "Treatment with Synucleozid and siRNA for proteomics profiling using Mass Spectrometry. SH-SY5Y cells were cultured in 100 mm dishes to 60% confluency and treated with 1.5 μM of Synucleozid or DMSO, or transfected with 0.1 μM α-synuclein siRNA (ON-TARGETplus Human SNCA siRNA-SMARTpool) or scramble siRNA (ON-TARGETplus Non-targeting siRNA) using Lipofectamine RNAiMAX (Invitrogen) according to the manufacturer's instructions for 48 h. Cells were gently washed twice with ice-cold PBS, detached and lysed in PBS via sonication. […] Same samples were then denatured in 6 M urea in 50 mM NH4HCO3, reduced with 10 mM tris(2-carboxyethyl)phosphine hydrochloride (TCEP) for 30 min, and alkylated with 25 mM iodoacetamide for 30 min, in the dark at room temperature. Samples were diluted to 2 M urea with 50 mM NH4HCO3, and digested with trypsin (Thermo Scientific, 1.5 μL of 0.5 μg/μL) in the presence of 1 mM CaCl2 (100× stock in water). The digestion was performed for 12 h at 37° C. Samples were acidified to a final concentration of 5% acetic acid, desalted over a self-packed C18 spin column, and dried. Samples were then analyzed by LC-MS/MS (see below). The MS data were processed with MaxQuant.\nLC-MS/MS analysis. Peptides from samples described above were resuspended in water with 0.1% formic acid and analyzed using EASY-nLC 1200 nano-UHPLC coupled to Q Exactive HF-X Quadrupole-Orbitrap mass spectrometer (Thermo Scientific). The chromatography column consists 30 cm long, 75 μm i.d. microcapillary capped by a 5 μm tip and packed with ReproSil-Pur 120 C18-AQ 2.4 μm beads (Dr. Maisch GmbH). LC solvents had two buffers which were Buffer A (0.1% formic acid in H2O) and Buffer B (0.1% formic acid in 90% MeCN:10% H2O). Peptides from samples described above were eluted into the mass spectrometer at a flow rate of 300 nL/min over a 240 min linear gradient (5-35% Buffer B) at 65 C. Data-dependent mode (top-20, NCE 28, R=7500) was used to acquire data after full MS scan (R=60000, m/z 400-1300). Dynamic exclusion was 10 s. Peptide match was set to prefer. Isotope exclusion was enabled.\nMaxQuant analysis. MaxQuant (11) (V1.6.1.0) was used to analyze the mass spectrometer data. Data was searched against the human proteome (Uniprot) and a list of contaminants (included in MaxQuant). The first and main peptide search tolerance were set to 20 ppm and 10 ppm respectively. Fragment mass tolerance was set to 0.02 Da. The false discovery rate (FDR) was 1% for proteins, peptides, and sites identification. The minimum peptide length was set to 6 amino acids (AA). Peptide requantification, label-free quantification (MaxLFQ), “match between runs” were all enabled. The minimal number of peptides for every protein was set to 2. A variable modification was set to be methionine oxidation, and a fixed modification was set to be carbamidomethylation of cysteines in searches."}, "PrP 5′ UTR": {"system": "PrP 5′ UTR", "conditions": "SH-SY5Y cells"}, "[2]": {"system": "RNA-2 to 5 (other non-canonically paired regions replaced with base pairs)", "assay": "Competitive binding assay (2-AP), RNA-2 to 5", "description": "I and I0 are the observed fluorescence intensity in the presence and absence of 2-AP RNA. Δε is the difference between the fluorescence intensity in the absence and presence of infinite 2-AP RNA. […] EC50 was calculated from Eq. (1). […] The change of fluorescence intensity was fit to Eq. (2):\nθ is the percentage of 2-AP RNA bound. [RNA] is the concentration of 2-AP RNA. EC50 is the EC50 of Synucleozid determined in the assay above. [Synucleozid] is the concentration of Synucleozid. Cc is the concentration of competitive RNA. Kd is competitive dissociation constant and A is a constant."}, "[3]": {"conditions": "Synucleozid 1.5 μM vs vehicle, siRNA 0.1 μM vs scrambled control siRNA"}},
  "data": [
    {"smiles": "N=C(N)c1ccc(Nc2ccc(-c3cc4ccc(C(=N)N)cc4[nH]3)cc2)cc1", "note": "[Synucleozid A]", "values": [
      {"measurement": "inhibitory effect on luciferase construct lacking SNCA 5′ UTR", "setting": "[1]", "value": "No inhibitory effect"},
      {"measurement": "LDH release (cytotoxicity)", "setting": "SH-SY5Y cells", "value": "no toxicity"},
      {"measurement": "LDH release (cytotoxicity)", "setting": "SH-SY5Y cells; listed as Synucleozid", "value": "no effect"},
      {"measurement": "effect on proteins encoded by mRNAs with IREs (ACO2, NDUFS1, CDC42BPB, FTH1)", "setting": "SH-SY5Y cells proteome; 1.5 μM", "value": "Only FTH1 was affected"},
      {"measurement": "number of proteins downregulated", "setting": "SH-SY5Y cells proteome; [3]", "value": 143},
      {"measurement": "number of proteins with increased expression", "setting": "SH-SY5Y cells proteome; [3]", "value": 140},
      {"measurement": "proteins affected, percentage of detected", "setting": "SH-SY5Y cells proteome; [3]", "value": 8, "unit": "%"},
      {"measurement": "proteins downregulated, % of all proteins", "setting": "SH-SY5Y cells proteome; [3]", "value": 4.3, "unit": "%"},
      {"measurement": "proteins with increased expression, % of all proteins", "setting": "SH-SY5Y cells proteome; [3]", "value": 4.2, "unit": "%"},
      {"measurement": "number of proteins affected among 3300 detected", "setting": "SH-SY5Y cells proteome; Synucleozid 1.5 μM vs vehicle, siRNA 0.1 μM vs scrambled control siRNA, adjusted p-value <0.01", "value": 283},
      {"measurement": "effect on translation of luciferase fused to PrP 5′ UTR", "setting": "PrP 5′ UTR", "value": "no effect"},
      {"measurement": "effect of mutation on Synucleozid binding", "setting": "[2]", "value": "no effect"}
    ]}
  ]
}
